Where a name gives a salt, the structure may show the parent alone.
Test system: T1, horseradish peroxidase (HRP)
T1 construct: gene PRXC1A
Conditions: read-out: Free HRP; free enzyme; pH 7, 25 °C; 0.1 to 5 mM ABTS; H2O2 not stated for the kinetic assay

Compound CCn1c(=NN=c2sc3cc(S(=O)(=O)O)ccc3n2CC)sc2cc(S(=O)(=O)O)ccc21 [ABTS, 2,2′-azino-bis(3-ehylbenzothiazoline-6-sulfonic acid) diammonium salt] has a Km of 1.54 ± 0.13 mM.
